Assay results as given in ChEMBL document CHEMBL1136663, “Structure-activity relationships studies of the anti-angiogenic activities of linomide” (Bioorg Med Chem Lett, 2003).

Key:
[1] = system: PC-3; test: Antiproliferative activity against PC-3 prostate cancer cells; assay type: functional, cell-based; details: Homo sapiens
[2] = system: HUVEC; test: Inhibitory concentration against Human umbilical vein endothelial cell (HUVEC) proliferation; assay type: functional, cell-based
[3] = organism: Gallus gallus; test: Effective concentration for inhibiting blood vessel formation in the CAM (Chicken chorioallantoic membrane) angiogenesis assay.; assay type: functional

IC50 [1] [µM] | SMILES | IC50 [2] [µM] | ED50 [3] [µg embryo-1]
> 100 | CN(C(=O)c1c(O)c2ccccc2n(C)c1=O)c1ccccc1 [ROQUINIMEX] | 14 | 60.1
> 100 | O=C(Nc1ccccc1)c1cc2ccccc2nc1O | – | > 100
> 100 | CN(C(=O)c1cc2ccccc2n(C)c1=O)c1ccccc1 | – | > 100
> 100 | Cn1c(=O)c(C(=O)Nc2ccccc2)c(O)c2ccccc21 | 7.2 | 18

The remaining lines, values behind:

SMILES | IC50 [1] [µM] | IC50 [2] [µM] | ED50 [3] [µg embryo-1]
CN(C(=O)c1c(O)nc2ccccc2c1O)c1ccccc1 | > 100 | 6.55 | 7.5
O=C(Nc1ccccc1)c1c(O)nc2ccccc2c1O | > 100 | 4 | 0.87
CN(C)C(=O)c1c(O)c2ccccc2n(C)c1=O | > 100 | 16.5 | 8.5
